Test results taken from US20090247611A1, “METHOD OF TREATING A CANCER WITH A SURVIVIN ANTISENSE OLIGONUCLEOTIDE AND PACLITAXEL” (priority 2004, published 2009).

Experiments:
[1] = test system: HeLa cells; test: cell based caspase 3 assay; conditions: oligonucleotide 50 nM transfected 24 h, then 10 nM gemcitabine HCl or 1.25 nM paclitaxel for additional 48 h, compared to untreated control
Procedure: The assay is performed as described below.
HeLa cells are obtained from ATCC, Manassas, Va. and are cultured in DMEM with L-Glutamine medium (Gibco/Invitrogen) supplemented with 10% Fetal Bovine Serum (Hyclone), 0.1 mM Non-Essential Amino Acids, and 1 mM Sodium Pyruvate (Gibco/Invitrogen). For the caspase-3 assay, 96-well plates are plated with 1×10^4 cells/well. […] Caspases-3 activity is measured by reading proteolytically released fluor from the Ac-DEVD-AMC substrate using a plate-reading fluorometer with excitation at 360 nm and emission at 460 nm. After subtracting the plate background, the relative fluorescence units (RFU) are compared to untreated control and expressed as percentage increase in caspase-3 activity.
To investigate whether down-regulation of Survivin expression sensitizes HeLa cells to chemotherapy, combination treatment with Compound I and either gemcitabine HCl, doxorubicin HCl, or paclitaxel is evaluated. […] At the end of the incubation period, casapse-3 activity is measured. […] Data are expressed as percentage caspase-3 activity compared to untreated control.

[2] = test system: U-87 MG human glioblastoma; test: human xenograft tumor model, tumor growth delay; format: in vivo; conditions: U-87 MG s.c. xenograft; oligonucleotide 50 mg/kg loading then 25 mg/kg i.v. every other day; gemcitabine HCl 2.5 mg/kg i.p. every third day x4
Procedure: The use of human xenograft tumor models has been described previously and is well known in the art. The following tumor types can be used to conduct the assay as described below. U-87 MG human glioblastoma are obtained from […] et al., Neoplasia (2000) 2(3):242-50). For xenograft studies, just before implantation, animals are irradiated (450 TBI (total body irradiation)), and cells are mixed in matrigel (1:1). […] All subsequent intravenous doses (25 mg/kg) of Compound I or MM control oligonucleotide are administered every other day. The treatment with sub-optimal doses of gemcitabine HCl, doxorubicin HCl, or paclitaxel is initiated one day following the loading dose. Gemcitabine HCl is administered intraperitoneally at 2.5 mg/kg every third day for a total of four doses. Paclitaxel is administered intravenously at 1 mg/kg every fourth day for a total of four doses. Bi-dimensional measurements are performed twice per week, and tumor volumes are calculated based on the following formula: […] Tumor volume data are transformed to a log scale to equalize variance across time and treatment groups. The data are analyzed using a two-way analysis of variance by time and treatment using SAS PROC MIXED software (SAS Institute, Inc., Cary, N.C.). The preferred correlation model for the repeated measures is AR (Auto Regressive of order 1). Treatment groups are compared at each time point. The data are plotted as means and standard errors for each treatment group versus time. The presence of synergy in combination therapies is assessed on the tumor growth delay (TGD) scale. The time to reach a specified tumor size (1500 or 2000 or 2500 mg in this study) is determined for each animal. […] Maximum likelihood analysis assuming a Weibull distribution is used to calculate mean times and standard errors for each treatment group. Tumor growth delay is the difference in mean times between each of the treated groups and the control group.

SMILES | Mean (% Caspase-3 Activity) [1] [%] | Tumor Growth Delay at 1500 mg, Mean ± S.E.M. [2] [days] | Tumor Growth Delay at 2000 mg, Mean ± S.E.M. [2] [days] | Tumor Growth Delay at 2500 mg, Mean ± S.E.M. [2] [days]
Cl.Nc1ccn([C@@H]2O[C@H](CO)[C@@H](O)C2(F)F)c(=O)n1 (single isomer, unassigned) [Gemcitabine HCl, 2′-deoxy-2′,2′-difluorocytidine monohydrochloride (⊖-isomer)] | 24.33 | 0.3 ± 1.1 | 0.3 ± 1.2 | 0.6 ± 1
CC(=O)O[C@H]1C(=O)[C@@]2(C)[C@H]([C@H](OC(=O)c3ccccc3)[C@]3(O)C[C@H](OC(=O)[C@H](O)[C@@H](NC(=O)c4ccccc4)c4ccccc4)C(C)=C1C3(C)C)[C@]1(OC(C)=O)CO[C@@H]1C[C@@H]2O [Paclitaxel, 5β, 20-Epoxy-1,2α,4,7β,10β,13α-hexahydroxytax-11-en-9-one 4,10-diacetate 2-benzoate 13-ester with (2R,3 S)—N-benzoyl-3-phenylisoserine] | 12.77 | – | – | –
